Measured values from patent EP0497921B1, “METHOD FOR INHIBITING ENZYMATIC SYNTHESIS OF NUCLEIC ACIDS USING ISOPSORALENS” (ISAACS, Stephen T., priority 1989, dated 1991).

Columns and labels:
T4 Polymerase = assay: Primer extension on site-specific 71-mer monoadduct template; type: biochemical; settings: 37°C for 0, 5 or 15 minutes, PAGE, autoradiography
From the text: (§1) The sequences that are presented in Figure 26 describe several oligonucleotides that are used in the synthesis of either a normal 71-mer or the identical 71-mer containing a site-specifically placed psoralen or isopsoralen monoadduct. The 71-mer is a sub-sequence of the Human Immunodeficiency Virus (HIV) sequence. (An HIV DNA system is described in a co-pending application, Serial No. 225,725.) SK-39 is a primer oligonucleotide that is complementary to the 3' end of the 71-mers. This primer oligonucleotide can be extended on the 71-mer template to make a complementary strand of the 71-mer.
(§2) Preparation of 71-mers which contain site-specific monoadducts involves 1) preparation of different 15-mer monoadducts from the same unmodified 15-mer (HRI-42), and 2) ligation of the different 15-mer monoadducts to the same 56-mer "extender oligonucleotide" (HRI 102) using a 25-mer oligonucleotide (HRI-45) as a splint. The arrows in Figure 27 indicate the direction of synthesis, while the monoadduct is indicated by a short line that is perpendicular to the oligomer. While each of the 71-mer monoadducts contains the adduct at a base position that is greater than 56 bases from the 5' end, the precise position of the monoadduct is not meant to be indicated.
(§3) To prepare the 15-mer adducts, the 15-mer was incubated with a complementary 10-mer along with psoralen or isopsoralen under hybridization conditions. The mixture was then irradiated to provide the monoadducted 15-mer. While the invention is not dependent on knowing the precise mechanism of coupling, it has generally been believed that the 10-mer directs the isopsoralen to a single TpA site within the double-stranded helix formed by the 10-mer/15-mer hybrid. After isolation of an HPLC peak believed to contain the 15-mer with a single psoralen or isopsoralen monoadduct, these 15-mer monoadducts were ligated to a 56-mer extender in order to provide the monoadducted 71-mers for use as polymerase templates. The ligation reaction therefore utilized three oligonucleotides: the particular psoralen or isopsoralen monoadducted 15-mer, the 56-mer extender, and the 25-mer splint. The ligation complex was hybridized together then ligated. The ligated product was then isolated as a single band by denaturing PAGE.
(§4) To provide highly purified 71-mers which contain a single monoadduct, it was necessary to provide highly purified 15-mer monoadduct prior to the ligation step. This was accomplished by repurification of the HPLC purified monoadducted 15-mers by PAGE. In this way, essentially all the non-monoadducted 15-mer was removed prior to ligation. Separation of 15-mer monoadduct from unmodified 15-mer was readily accomplished by PAGE (while the same technique is not effective for separation of the corresponding unmodified 71-mer and monoadducted 71-mer sequences). In this manner, exceedingly pure monoadducted 71-mers were produced for the primer extension reactions; monoadducted 71-mers (as well as unmodified 71-mers) are used in template-dependent enzymatic extension experiments in examples 43-47 below.
(§5) In this experiment, monoadducted 71-mers (as well as unmodified 71-mers) were used in template-dependent enzymatic extension. AMIP, AMDMIP, and MIP 71-mer monoadducts were made as in Example 17. […] Note that the 3' end of the 71-mer (HRI 55) is complementary to the primer (SK-39) (see also Figure 26). Each of the extension experiments were run at 37°C for 0, 5 or 15 minutes. Each of the reactions were initiated by providing the templates and deoxyribonucleoside 5'-triphosphates (dATP, dGTP, dCTP, and dTTP are collective abbreviated as dNTPs), and by adding the particular polymerase last to start the reaction. For detection, the primer extension reaction utilized 5' ^32P-labelled primer. The reactions were stopped by adding EDTA. Analysis was by denaturing PAGE followed by autoradiography. […]

Klenow Polmerase = assay: as above; type: biochemical; settings: 37°C for 0, 5 or 15 minutes, PAGE, autoradiography
From the text: as §1, §2, §3, §4, §5

E. Coli DNA Polymerase = assay: as above; type: biochemical; settings: 37°C for 0, 5 or 15 minutes, PAGE, autoradiography
From the text: as §1, §2, §3, §4, §5

Reverse Transcriptase = assay: as above; type: biochemical; settings: 37°C for 0, 5 or 15 minutes, PAGE, autoradiography
From the text: as §1, §2, §3, §4, §5

calf thymus DNA = assay: Equilibrium dialysis, dark binding (association constant); settings: for Ka: 4°C, five days, dark, isopsoralen:DNA base pair ratio 1:15
Experimental: Equilibrium Dialysis was used to determine the association ("dark binding") constants of AMIP, AMDMIP and MIP with calf thymus DNA. The tritium labelled isopsoralens were used for the experiment. The method was a modification of that of Isaacs et al. Biochemistry 16, 1058-1066 (1977).
Spectrapor 2 dialysis tubing (Spectrum) was pretreated by boiling in saturated sodium bicarbonate then rinsed thoroughly with double distilled water. Calf thymus DNA (Sigma) was prepared at a concentration of 50 µg/ml in 1 X TE. The samples were prepared by placing 1.0 ml of the DNA solution inside the bag and using enough isopsoralen to provide an isopsoralen:DNA base pair ratio of 1:15. The samples were prepared with the tritiated isopsoralen ("Drug") placed either inside or outside
of the dialysis bag (each sample was placed in a scintillation vial containing a small magnetic stir bar). The samples were stirred at 4°C for five days in the dark. After this period the bags were removed, opened, and the radioactivity inside and outside the bag determined by scintillation counting. The concentration of the DNA was determined by measuring optical density at 260 nm. The […] constant (Ka) was calculated from this information (Table 9). Preparing the samples in duplicate with the isopsoralen both inside and outside the dialysis bag provided a check that the system had come to equilibrium at the end of the dialysis period (the amount of isopsoralen inside and outside the bag at equilibrium should be, and was, the same in both cases).
The association constant, Ka is defined here as Ka = ([P:DNA])/([P] [DNA]) [formula] for the reaction P + DNA = P:DNA where p = free drug in solution, DNA = DNA binding site for the drug, and P:DNA = drug associated with the DNA. The following summarizes the Ka values determined for the compounds: […]

[1] = tritiated drug placed inside dialysis bag
[2] = tritiated drug placed outside dialysis bag

Sequence of E. Coli DNA Polymerase (P00582 whole entry): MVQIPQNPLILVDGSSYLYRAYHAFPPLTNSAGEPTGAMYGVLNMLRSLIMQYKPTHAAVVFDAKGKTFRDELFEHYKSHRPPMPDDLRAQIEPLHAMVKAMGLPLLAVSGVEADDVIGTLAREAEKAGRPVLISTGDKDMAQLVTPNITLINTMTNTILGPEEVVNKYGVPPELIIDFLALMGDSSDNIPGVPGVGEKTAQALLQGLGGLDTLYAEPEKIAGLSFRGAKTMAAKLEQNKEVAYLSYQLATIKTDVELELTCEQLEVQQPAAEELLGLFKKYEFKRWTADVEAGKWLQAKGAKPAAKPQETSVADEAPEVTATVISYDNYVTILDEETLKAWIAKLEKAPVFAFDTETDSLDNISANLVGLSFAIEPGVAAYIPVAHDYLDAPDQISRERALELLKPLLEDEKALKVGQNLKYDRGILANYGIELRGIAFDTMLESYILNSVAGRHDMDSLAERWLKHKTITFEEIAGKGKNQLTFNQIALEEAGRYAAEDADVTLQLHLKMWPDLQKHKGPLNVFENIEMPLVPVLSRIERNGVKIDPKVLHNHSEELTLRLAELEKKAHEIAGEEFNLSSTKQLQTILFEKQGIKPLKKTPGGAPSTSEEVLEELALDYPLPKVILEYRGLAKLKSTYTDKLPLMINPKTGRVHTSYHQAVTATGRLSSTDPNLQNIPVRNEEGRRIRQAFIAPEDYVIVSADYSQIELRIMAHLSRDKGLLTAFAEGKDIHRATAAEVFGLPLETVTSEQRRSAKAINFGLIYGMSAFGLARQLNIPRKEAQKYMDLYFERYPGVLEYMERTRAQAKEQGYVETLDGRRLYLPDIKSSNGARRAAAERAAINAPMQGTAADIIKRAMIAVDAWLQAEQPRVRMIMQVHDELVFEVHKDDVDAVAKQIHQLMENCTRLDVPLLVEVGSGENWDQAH

Molecule | polymerase stop at adduct (primer extension) (T4 Polymerase) | polymerase stop at adduct (primer extension) (Klenow Polmerase) | polymerase stop at adduct (primer extension) (E. Coli DNA Polymerase) | polymerase stop at adduct (primer extension) (Reverse Transcriptase) | Ka (calf thymus DNA; [1]) | Ka (calf thymus DNA; [2]) | Ka relative to AMDMIP (calf thymus DNA; compared with AMDMIP)
4'-Aminomethyl-4,5'-dimethylisopsoralen [AMDMIP] | complete stop | complete stop | complete stop | complete stop | 7.66 x 10^4 | 1.07 x 10^5 | 
5-Aminomethylisopsoralen [AMIP] | complete stops | not complete stops | not complete stops | complete stops | 2.96 x 10^4 | 2.21 x 10^4 | 28%
Cc1cc2occc2c2oc(=O)ccc12 [MIP, 5-Methylisopsoralen] | complete stops | not complete stops | not complete stops | complete stops | 9.08 x 10^3 | 2.07 x 10^3 | 
